# Assay results as given in patent US20180125792A1, “NON-STEROIDAL ANTI-INFLAMMATORY DRUGS FOR COUGH” (BAYER CONSUMER CARE AG, priority 2006, published 2018).
# Columns and labels:
# [1] = 600 mg three times a day for 6 days; cited from earlier work
# [2] = Symptomatic treatment of nonproductive cough in 3 volunteer patients in the final phase of a viral infection; type: in vivo, human
# Protocol: The efficacy of ibuprofen in the symptomatic treatment of nonproductive cough was determined in 3 volunteer patients in the final phase of a viral infection. For this purpose, the patients received oral administration of 400 or 800 mg of ibuprofen (the daily dose was between 400 and 1200 mg). No other medicaments were taken by the patients during the viral infection.
# It was observed after administration of ibuprofen that the number of attacks of coughing was reduced by more than 50% relative to the number of attacks of coughing before administration of ibuprofen.
# The effects of ibuprofen declined after 6 to 8 hours and the cough reappeared in the former severity.
# [3] = cited from earlier work
# [4] = oral 400 or 800 mg ibuprofen, patients' report
compound,measurement,setting,value
CC(C)Cc1ccc(C(C)C(=O)O)cc1 (stereo not drawn) [ibuprofen],number of coughing episodes compared with placebo,[1],reduction in the number of coughing episodes
same,number of attacks of coughing reduced relative to the number before administration,"[2]; oral 400 or 800 mg ibuprofen (daily dose 400-1200 mg), 3 patients",more than 50%
same,intensity of the urge to cough,[2]; [4],reduced
same,severity of the attacks of coughing,[2]; [4],reduced
same,patients' rest at night,"[2]; oral 400 or 800 mg ibuprofen, without additional cough suppressant",possible to improve the patients' rest at night
same,symptoms of cough after renewed administrations,[2]; subsequent renewed administrations of ibuprofen,again led to the described improvement
same,symptoms of cough,"[3]; 10 mg/kg, 30 children, uncontrolled study",reduction in the symptoms of cough
CS(=O)(=O)Nc1ccc([N+](=O)[O-])cc1Oc1ccccc1 [nimesulide],fever-reducing effect,"[3]; 5 days, nimesulide 2.5 mg/kg 2x a day vs paracetamol or ibuprofen 10 mg/kg 3x a day",better and faster than that of paracetamol or ibuprofen
CC(=O)Nc1ccc(O)cc1 [paracetamol],alleviation of the symptoms of cough,"[3]; 5 days, paracetamol 10 mg/kg 3x a day vs ibuprofen or nimesulide",greater
